Experiment [1] has as its target T1, human recombinant V600E mutant BRAF (Homo sapiens, UniProt P15056, V600E).
T1 construct: purchased BPS Bioscience 40533
Kind of experiment: BRAF^V600E Inhibition Assay (TR-FRET). It counts as biochemical. The procedure: (§1) Activity of human recombinant V600E mutant BRAF were assessed in vitro using time-resolved fluorescence resonance energy transfer (TR-FRET) assay. The assay was performed according to the kit instructions. Briefly, the V600E mutant BRAF enzyme (BPS Bioscience, cat #40533) was diluted to 0.027 ng/μL using the 1× kinase buffer A (Life Tech, cat #PV6135, 5× dilution with H2O); the Fluorescein labeled-MAP2K1 (Life Tech, Cat #PV4812) was diluted to 0.5 μM; ATP (Life Tech, cat #PV3227) was diluted to 20 μM; 2.5 μl of each diluted reagent was added to a 384-well (PerkinElmer, ProxiPlate-384 Plus, 6008280) plate and mixed together; 2.54, serial diluted compounds were added into the mixture. 104, 400-fold diluted LanthaScreen Tb-pMAP2K1 (pSer217/221) antibody (Life Tech, cat #PV4817) was then added to each kinase reaction. The reactions were incubated at Room Temperature for 1 hour. The plate was then read on PHERAstar FSX using 340/490/520 module. Inhibition data were calculated by comparison to vehicle control wells for 0% inhibition and non-stimulated control wells for 100% inhibition. Dose response curves were then generated to determine the concentration required to suppress 50% of enzymatic response (IC50) as derived by non-linear regression analysis using GraphPad Prism.

A further experiment concerns the target human recombinant cRAF (Homo sapiens, UniProt P04049). Kind of experiment: cRAF Inhibition Assay (TR-FRET). In kind it is biochemical. The procedure:
as §1, with “cRAF” for “V600E mutant BRAF”, “#40008)” for “#40533)”, “2.54,” for “2.5 μl”, “384-well plate” for “384-well”, “6008280)” for “6008280) plate”, “compound” for “compounds”

The target of the next experiment is T2, human recombinant BRAF (Homo sapiens, UniProt P15056).
T2 construct: purchased BPS Bioscience 40065
Kind of experiment: BRAF^WT Inhibition Assay (TR-FRET). In kind it is biochemical. How it is done:
Activity of human recombinant BRAF were assessed in vitro using time-resolved fluorescence resonance energy transfer (TR-FRET) assay. The assay was performed according to the kit instructions. Briefly, the BRAF enzyme (BPS Bioscience, cat #40065) was diluted to 0.027 ng/μL using the 1× kinase buffer A (Life Tech, cat #PV6135, 5× dilution with H2O); the Fluorescein labeled-MAP2K1 (Life Tech, Cat #PV4812) was diluted to 0.5 μM; ATP (Life Tech, cat #PV3227) was diluted to 20 μM; 2.54, of each diluted reagent was added to a 384-well plate (PerkinElmer, ProxiPlate-384 Plus, 6008280) and mixed together; 2.54, serial diluted compound were added into the mixture. 104, 400-fold diluted LanthaScreen Tb-pMAP2K1 (pSer217/221) antibody (Life Tech, cat #PV4817) was then added to each kinase reaction. The reactions were incubated at Room Temperature for 1 hour. The plate was then read on PHERAstar FSX using 340/490/520 module. Inhibition data were calculated by comparison to vehicle control wells for 0% inhibition and non-stimulated control wells for 100% inhibition. Dose response curves were then generated to determine the concentration required to suppress 50% of enzymatic response (IC50) as derived by non-linear regression analysis using GraphPad Prism.
In general terms: TR-FRET usually uses a lanthanide donor and a delayed reading to cut background.

Experiment [2] relates to NCI-H358 (KRAS^G12C) non-small cell lung cancer cell. The experiment is described as follows: NCI-H358 Cancer Cell Growth Inhibition Assay (CellTiter-Glo). In kind it is cell-based, human. The note with it: for GI50: Homo sapiens, 72 h, NCI-H358 cells, incubated for 3 days, CellTiter-Glo. The procedure: Activity of human NCI-H358 (KRAS^G12C) non-small cell lung cancer cell growth inhibition was assessed in vitro using CellTiter-Glo® Luminescent Cell Viability Assay. The assay was performed according to the kit instructions (Promega, cat #G7570). Briefly, NCI-H358 cells (ATCC, #CRL-5807) were seeded in 96-well plates at a density of 2,500 cells/well in and cells were cultured overnight in a humidified, 5% CO2 cell culture incubator at 37° C. 10 μL serial diluted compounds were added into each cell-culture well and incubated for 3 days. 100 μL CellTiter-Glo® Reagent was added into each well. The reactions were incubated at Room Temperature for 10 minutes, and luminescence signals were recorded on a Tecan Luminescence Plate Reader. Inhibition data were calculated by comparison to vehicle control wells for 0% inhibition and non-stimulated control wells for 100% inhibition. Dose response curves were then generated to determine the concentration required to suppress 50% of cellular growth response (GI50) as derived by non-linear regression analysis using GraphPad Prism.
(In general: In ATP-based viability assays light output follows the ATP content of the culture.)

T2 sequence (P15056 whole entry): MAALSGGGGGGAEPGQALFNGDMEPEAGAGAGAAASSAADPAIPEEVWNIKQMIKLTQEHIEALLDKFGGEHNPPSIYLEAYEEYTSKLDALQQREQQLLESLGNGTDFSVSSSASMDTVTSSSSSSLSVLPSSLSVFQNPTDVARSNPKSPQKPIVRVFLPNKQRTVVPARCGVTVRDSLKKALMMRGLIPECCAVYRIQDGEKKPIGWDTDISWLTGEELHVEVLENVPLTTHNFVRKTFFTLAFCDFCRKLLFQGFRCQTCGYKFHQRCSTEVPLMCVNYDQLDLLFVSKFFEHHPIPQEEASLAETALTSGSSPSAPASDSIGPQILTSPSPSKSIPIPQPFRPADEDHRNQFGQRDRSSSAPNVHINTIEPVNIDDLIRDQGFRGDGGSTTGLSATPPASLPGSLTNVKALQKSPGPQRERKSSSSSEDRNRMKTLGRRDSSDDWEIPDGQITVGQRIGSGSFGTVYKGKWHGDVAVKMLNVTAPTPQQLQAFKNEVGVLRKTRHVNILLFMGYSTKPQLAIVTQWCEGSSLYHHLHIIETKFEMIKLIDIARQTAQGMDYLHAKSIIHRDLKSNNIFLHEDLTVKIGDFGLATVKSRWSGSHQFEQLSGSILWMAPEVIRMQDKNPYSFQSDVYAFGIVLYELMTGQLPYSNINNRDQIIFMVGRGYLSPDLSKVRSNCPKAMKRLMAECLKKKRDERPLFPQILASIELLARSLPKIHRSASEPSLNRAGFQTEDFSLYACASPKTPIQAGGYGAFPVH
Chain of human recombinant cRAF (P04049 whole entry Y340D/Y341D, form open): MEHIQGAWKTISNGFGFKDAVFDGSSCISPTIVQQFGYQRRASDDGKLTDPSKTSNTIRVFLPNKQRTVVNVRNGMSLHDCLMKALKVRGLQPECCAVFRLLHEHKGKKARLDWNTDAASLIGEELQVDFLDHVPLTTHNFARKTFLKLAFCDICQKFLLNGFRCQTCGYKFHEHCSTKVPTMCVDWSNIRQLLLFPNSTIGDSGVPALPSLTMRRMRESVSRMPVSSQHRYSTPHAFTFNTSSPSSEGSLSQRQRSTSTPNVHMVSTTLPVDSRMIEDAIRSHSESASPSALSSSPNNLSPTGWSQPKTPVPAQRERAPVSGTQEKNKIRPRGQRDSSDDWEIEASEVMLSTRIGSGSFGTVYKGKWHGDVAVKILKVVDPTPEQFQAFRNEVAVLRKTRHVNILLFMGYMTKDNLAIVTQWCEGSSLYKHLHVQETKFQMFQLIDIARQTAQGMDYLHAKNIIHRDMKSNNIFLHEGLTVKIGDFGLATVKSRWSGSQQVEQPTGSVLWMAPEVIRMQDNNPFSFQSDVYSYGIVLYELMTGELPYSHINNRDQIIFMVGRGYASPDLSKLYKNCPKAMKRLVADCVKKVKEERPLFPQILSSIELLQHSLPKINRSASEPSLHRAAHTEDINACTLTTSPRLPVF
T1 sequence (P15056 whole entry V600E): as the sequence (P15056 whole entry) above, with V600E counted along it

Usually IC50 stands for the concentration that gives 50% inhibition. Take `Cc1ccc(NC(=O)c2ccc3c(c2)CC3)cc1-c1cc(OCCO)nc(N2CCOCC2)c1` [Example 2, N-(3-(2-(2-hydroxyethoxy)-6-morpholinopyridin-4-yl)-4-methylphenyl)bicyclo[4.2.0]octa-1(6),2,4-triene-3-carboxamide]: the IC50 turned out to be 18 nM in experiment [1], 7.9 nM at human recombinant cRAF and 38.5 nM on human recombinant BRAF.

In the case of `Cc1ccc(NC(=O)c2ccc3c(c2)C(F)(F)CC3)cc1-c1cc(OCCO)nc(N2CCOCC2)c1` [Example 3, 3,3-difluoro-N-(3-(2-(2-hydroxyethoxy)-6-morpholinopyridin-4-yl)-4-methylphenyl)-2,3-dihydro-1H-indene-5-carboxamide], the values for the IC50 (in experiment [1]; at human recombinant cRAF; at human recombinant BRAF) were 88 nM, 27 nM and 170 nM, respectively.

For `Cc1ccc(NC(=O)c2ccc3c(c2)C(F)(F)CO3)cc1-c1cc(OCCO)nc(N2CCOCC2)c1` [Example 4, 3,3-difluoro-N-(3-(2-(2-hydroxyethoxy)-6-morpholinopyridin-4-yl)-4-methylphenyl)-2,3-dihydrobenzofuran-5-carboxamide], the IC50 in experiment [1] amounted to 96 nM; at human recombinant cRAF, 51 nM; on human recombinant BRAF, 260 nM.

Turning to `Cc1ccc(NC(=O)c2ccc3c(c2)CCC3(F)F)cc1-c1cc(OCCO)nc(N2CCOCC2)c1` [Example 5, 1,1-difluoro-N-(3-(2-(2-hydroxyethoxy)-6-morpholinopyridin-4-yl)-4-methylphenyl)-2,3-dihydro-1H-indene-5-carboxamide], the IC50 in experiment [1] was 65 nM; at human recombinant cRAF it was 39 nM; on human recombinant BRAF, 92 nM.

Take `Cc1ccc(NC(=O)c2cnc3c(c2)CCC3(F)F)cc1-c1cc(OCCO)nc(N2CCOCC2)c1` [Example 6, 7,7-difluoro-N-(3-(2-(2-hydroxyethoxy)-6-morpholinopyridin-4-yl)-4-methylphenyl)-6,7-dihydro-5H-cyclopenta[b]pyridine-3-carboxamide]: the concentration for half-maximal inhibition (IC50) amounted to 8.4 nM in experiment [1], 3.9 nM at human recombinant cRAF and 26 nM on human recombinant BRAF.

Usually GI50 stands for the concentration at which growth is held to half of that of the control. For `Cc1ccc(NC(=O)c2cnc3c(c2)C(F)(F)CC3)cc1-c1cc(OCCO)nc(N2CCOCC2)c1` [Example 7, 5,5-difluoro-N-(3-(2-(2-hydroxyethoxy)-6-morpholinopyridin-4-yl)-4-methylphenyl)-6,7-dihydro-5H-cyclopenta[b]pyridine-3-carboxamide], the values for the half-inhibitory concentration (IC50) (in experiment [1]; at human recombinant cRAF; at human recombinant BRAF) were 18 nM, 10 nM and 46 nM, respectively. The “cell growth inhibition in H358 cancer line compared to LXH254” value in experiment [2] is “better or similar cell growth inhibition”. Also, the GI50 in experiment [2] came out at 2800 nM.

In the case of `Cc1ccc(NC(=O)c2ccc3c(c2)OC(C)(C)O3)cc1-c1cc(OCCO)nc(N2CCOCC2)c1` [Example 8, N-(3-(2-(2-hydroxyethoxy)-6-morpholinopyridin-4-yl)-4-methylphenyl)-2,2-dimethylbenzo[d][1,3]dioxole-5-carboxamide], the half-inhibitory concentration (IC50) is 62 nM in experiment [1], 25 nM on human recombinant cRAF and 140 nM at human recombinant BRAF. Moreover, in experiment [2], the “cell growth inhibition in H358 cancer line compared to LXH254” value was “better or similar cell growth inhibition”. This compound had a GI50 in experiment [2] of 220 nM.

For `Cc1ccc(NC(=O)c2ccc3c(c2)OCO3)cc1-c1cc(OCCO)nc(N2CCOCC2)c1` [Example 9, N-(3-(2-(2-hydroxyethoxy)-6-morpholinopyridin-4-yl)-4-methylphenyl)benzo[d][1,3]dioxole-5-carboxamide], the IC50 is 18 nM in experiment [1], 6.7 nM on human recombinant cRAF and 42 nM at human recombinant BRAF. Also, in experiment [2], the “cell growth inhibition in H358 cancer line compared to LXH254” value is listed as “better or similar cell growth inhibition”. The compound further returned a GI50 in experiment [2] of 1600 nM.

In the case of `Cc1ccc(NC(=O)c2cc3c(cn2)OC(F)(F)O3)cc1-c1cc(OCCO)nc(N2CCOCC2)c1` [Example 10, 2,2-difluoro-N-(3-(2-(2-hydroxyethoxy)-6-morpholinopyridin-4-yl)-4-methylphenyl)-[1,3]dioxolo[4,5-c]pyridine-6-carboxamide], the results for the IC50 (in experiment [1]; at human recombinant cRAF; on human recombinant BRAF) were 55 nM, 25 nM and 95 nM, respectively. For the same compound, the “cell growth inhibition in H358 cancer line compared to LXH254” value in experiment [2] was “better or similar cell growth inhibition”. For the same compound, halving of growth in experiment [2] (GI50) required 85 nM.

With `Cc1ncc(NC(=O)c2ccc3c(c2)OC(F)(F)O3)cc1-c1cc(OCCO)nc(N2CCOCC2)c1` [Example 11, 2,2-difluoro-N-(2′-(2-hydroxyethoxy)-2-methyl-6′-morpholino-[3,4′-bipyridin]-5-yl)benzo[d][1,3]dioxole-5-carboxamide], the IC50 in experiment [1] came to 39 nM; at human recombinant cRAF it was 10 nM; on human recombinant BRAF, 70 nM.

Turning to `Cc1ccc(NC(=O)c2ccc3c(c2)OCCO3)cc1-c1cc(OCCO)nc(N2CCOCC2)c1` [Example 13, N-(3-(2-(2-hydroxyethoxy)-6-morpholinopyridin-4-yl)-4-methylphenyl)-2,3-dihydrobenzo[b][1,4]dioxine-6-carboxamide], the values for the 50% inhibitory concentration (IC50) (in experiment [1]; at human recombinant cRAF; on human recombinant BRAF) were 13 nM, 4.7 nM and 31 nM, respectively. Moreover, the “cell growth inhibition in H358 cancer line compared to LXH254” value in experiment [2] is reported as “better or similar cell growth inhibition”. Besides, halving of growth in experiment [2] (GI50) required 1200 nM.

The values above are taken from patent US20220135539A1, “BIARYL AMIDE COMPOUNDS, PREPARATION METHODS AND MEDICAL APPLICATIONS THEREOF” (Eternity Bioscience Inc., priority 2020, published 2022).
